Measurements as given in US20240277829A1, “HIV-1 VACCINATION AND SAMT-247 MICROBICIDE TO PREVENT HIV-1 INFECTION” (priority 2021, published 2024).

Experiments:
Assay type in all cases: cell-based
[1] = system: NKG2A^+ NK cells; assay: Intracellular cytokines of human blood NK cells using SAMT-247 and PMA stimulation with or without zinc chelator; conditions: PMA stimulation with or without SAMT-247, presence of TPEN
Procedure: Intracellular cytokines of Human blood NK cells using SAMT-247 and PMA stimulation with or without zinc chelator. The levels of NKG2A^+ NK cells were measured in blood of healthy humans. Human PBMCs were thawed and cultured in R10 in the presence or absence of SAMT-247 and/or PMA for 12 hours. Cells were incubated with or without Zinc chelator TPEN (cat. #P4413-100 MG, 5 μM) for 12 h. Subsequently, PBMCs were surface stained with the following: BUV737 anti-CD3 (SP34-2; cat. #741872, 5 μl), Alexa700 anti-CD20 (2H7; cat. #560631, 5 μl), BV786 anti-CD45 (HI30; cat. #563716, 5 μl) from BD Biosciences; APC-H7 anti-CD11b (ICRF44; cat. #47-0118-42, 5 μl) from eBioscience and PE-Cy7 anti-NKG2A (Z199; cat. #B10246, 5 μl) from Beckman coulter for 30 minutes at room temperature. This was followed by permeabilization with FOX3-transcription buffer set (cat. #00-5523-00) from eBioscience according to the manufacture's recommendation and subsequently intracellular staining with the following: BV750 anti-TNF-α (MAB11; cat. #566359, 5 μl), BUV396 anti-IFN-γ (B27; cat. #563563, 5 μl), BV510 anti-GranB (GB11; cat. #563388, 5 μl) from BD Biosciences; and FITC anti-Perforin (pf-344; cat. #3465-7, 5 μl) from MABTECH for 30 minutes at room temperature. Flow cytometry acquisitions were performed on a FACSymphony A5 and examined using FACSDIVA™ software (BD Biosciences).

[2] = system: Th1 and Th2 cells; assay: Zinc chelation: macaque blood T cells, SAMT-247 and/or gp120 peptides with or without TPEN; conditions: for frequency of IFN-γ^+ Th1^+ cells / frequency of IFN-γ^+ Th1^+CCR5^+α4β7^+ cells / frequency of IFN-γ^+ Th1^+CCR5^−α4β7^− cells / frequency of IFN-γ^+ Th2^+ cells / frequency of IFN-γ^+ Th2^+CCR5^+α4β7^+ cells / frequency of IFN-γ^+ Th2^+CCR5^−α4β7^− cells / frequency of IL-10^+ Th1^+ cells / frequency of IL-10^+ Th1^+CCR5^+α4β7^+ cells / frequency of IL-10^+ Th1^+CCR5^−α4β7^− cells / frequency of IL-10^+ Th2^+ cells / frequency of IL-10^+ Th2^+CCR5^+α4β7^+ cells / frequency of IL-10^+ Th2^+CCR5^−α4β7^− cells / frequency of TNF-α^+ Th1^+ cells / frequency of TNF-α^+ Th1^+CCR5^+α4β7^+ cells / frequency of TNF-α^+ Th1^+CCR5^−α4β7^− cells / frequency of TNF-α^+ Th2^+ cells / frequency of TNF-α^+ Th2^+CCR5^+α4β7^+ cells: with vs without zinc chelator
Procedure: (§1) Zinc chelation: The frequencies and cytokine levels of NK cells, monocytes and T cells were measured in macaque blood. Cryopreserved PBMCs were thawed and cultured in R10 in the presence/or absence of SAMT-247 and/or gp120 peptides for 12 hours. Cells were incubated with or without Zinc chelator TPEN (cat. #P4413-100 MG, 5 μM) for 12 h. Subsequently, cells were stained for live cells with Live/Dead Blue dye (cat. #L34962, 0.5 μl) from Thermofisher; followed by surface staining with the following: Alexa 700 anti-CD3 (SP34-2; cat. #557917, 5 μl), BV711 anti-CD4 (L200; cat. #563913, 5 μl), BB700 anti-CD8 (RPA-T8; cat. #566452, 5 μl), BUV737 anti-CD20 (2H7; cat. #612848, 5 μl), PE anti-CD45 (D058-1283; cat. #552833, 5 μl), BV786 anti-CCR5 (3A9; cat. #565001, 5 μl), BV496 anti-CD16 (3G8; cat. #612944, 5 μl), BUV661 anti-HLA-DR (G46-6; cat. #612980, 5 μl), BUV805 anti-CD14 (M5E2; cat. #565779, 5 μl) from BD Biosciences; APC-H7 anti-CD11b (ICRF44; cat. #47-0118-42, 5 μl), PE-Cy5 anti-CD95 (ICRF44; cat. #15-0959-42, 5 μl) from eBioscience; APC anti-α4β7, provided by the NIH Nonhuman Primate Reagent Resource (R24 OD010976, and NIAID contract HHSN272201300031C); BV605 anti-CCR6 (G034E3; cat. #353420, 5 μl), BV650 anti-CXCR3 (G025H7; cat. #353730, 5 μl), from Biolegend and PE-Cy7 anti-NKG2A (Z199; cat. #B10246, 5 μl) from Beckman coulter for 30 minutes at room temperature. This was followed by permeabilization with a FOX3-transcription buffer set (cat. #00-5523-00) from eBioscience according to the manufacture's recommendation and subsequently intracellular staining with the following: BV750 anti-TNF-α (MAB11; cat. #566359, 5 μl), BUV395 anti-IFN-γ (B27; cat. #563563, 5 μl), BV510 anti-GranB (GB11; cat. #563388, 5 μl), BV421 anti-IL-10 (JES3-9D7; cat. #564053, 5 μl), PE-CF594 anti-Ki67 (B56; cat. #567120, 5 μl) from BD Biosciences and FITC anti-Perforin (pf-344; cat. #3465-7, 5 μl) from MABTECH for 30 minutes at room temperature. Flow cytometry acquisitions were performed on a FACSYMPHONY™ A5 and examined using FACSDIVA™ software (BD Biosciences).

[3] = system: human NK cells; assay: Zinc intensity by confocal microscopy
Procedure: Zinc intensity. NKG2A^+ NK cells were isolated from cryopreserved healthy human PBMCs. NK cells were labeled with APC anti-NKG2A (Z199, cat. #A60797) from Beckman coulter, followed by separation with APC MicroBeads (#130-090-855, Miltenyi Biotec Inc.) using manufacturer instructions. Subsequently NK cells were cultured in the presence or absence of SAMT-247 and/or PMA stimulation for 7 hours. Cells were plated on ibidi chamber slides. Cells were washed and treated with zinc chelator or remained untreated for 30 minutes according to the manufacturers' recommendation using a cell-based Zinc assay kit (cat. #ab241014, Abcam). Subsequently cells were washed and stained with Zinc probe-green (cat. #ab241014, Abcam) and DAPI (Molecular Probes, Waltham, MA, USA) was used to visualize nuclei. Signals were visualized with a confocal laser-scanning microscope (Leica SP8, Buffalo Grove, IL, USA). Image processing was performed using the Imaris 9.2.1 software.

[4] = system: CD14^+ monocytes; assay: Zinc chelation: macaque blood monocytes, SAMT-247 and/or gp120 peptides with or without TPEN
Procedure: as §1

[5] = system: NKG2A^+ cells; assay: Zinc chelation: macaque blood NK cells, SAMT-247 and/or gp120 peptides with or without TPEN; conditions: for frequency of IFN-γ^+ NKG2A^+ cells / frequency of TNF-α^+ NKG2A^+ cells: with vs without zinc chelator
Procedure: as §1

[6] = gp120 pooled peptide + SAMT-247
[7] = SAMT-247, with vs without zinc chelator
[8] = gp120 pooled peptide + SAMT-247, with vs without zinc chelator
[9] = gp120 pooled peptide, with vs without zinc chelator
[10] = gp120 pooled peptides ± SAMT-247, TPEN treatment

c1ccc(CN(CCN(Cc2ccccn2)Cc2ccccn2)Cc2ccccn2)nc1 [Zinc chelator, N, N,N′,N′ tetrakis-(2-pyridyl-methyl) ethylendiamine]
IFN-γ and TNF-α expression in human NKG2A^+ cells [1]: significantly reduced | frequency of IFN-γ^+ Th1^+ cells ([2]; SAMT-247): ↓ | frequency of IFN-γ^+ Th1^+CCR5^+α4β7^+ cells ([2]; SAMT-247): ↓ | frequency of IFN-γ^+ Th1^+CCR5^−α4β7^− cells ([2]; SAMT-247): ↓ | frequency of IFN-γ^+ Th2^+ cells ([2]; SAMT-247): ↓ | frequency of IFN-γ^+ Th2^+CCR5^+α4β7^+ cells ([2]; SAMT-247): ↓ | frequency of IFN-γ^+ Th2^+CCR5^−α4β7^− cells ([2]; SAMT-247): ↓ | frequency of IL-10^+ Th1^+ cells ([2]; SAMT-247): ↓ | frequency of IL-10^+ Th1^+CCR5^+α4β7^+ cells ([2]; SAMT-247): ↓ | frequency of IL-10^+ Th1^+CCR5^−α4β7^− cells ([2]; SAMT-247): ↓ | frequency of IL-10^+ Th2^+ cells ([2]; SAMT-247): ↓ | frequency of IL-10^+ Th2^+CCR5^+α4β7^+ cells ([2]; SAMT-247): ↓ | frequency of IL-10^+ Th2^+CCR5^−α4β7^− cells ([2]; SAMT-247): ↓ | frequency of TNF-α^+ Th1^+ cells ([2]; SAMT-247): ↓ | frequency of TNF-α^+ Th1^+CCR5^+α4β7^+ cells ([2]; SAMT-247): ↓ | frequency of TNF-α^+ Th1^+CCR5^−α4β7^− cells ([2]; SAMT-247): ↓ | frequency of TNF-α^+ Th2^+ cells ([2]; SAMT-247): ↓ | frequency of TNF-α^+ Th2^+CCR5^+α4β7^+ cells ([2]; SAMT-247): ↓ | INF-γ and IL-10 production in Th2 CCR5^−α4β7^− cells ([2]; TPEN): decreased | frequency of IFN-γ^+ Th1^+CCR5^+α4β7^+ cells ([2]; Unstim): ↓ | frequency of IL-10^+ Th1^+CCR5^+α4β7^+ cells ([2]; Unstim): ↓ | frequency of IL-10^+ Th1^+CCR5^−α4β7^− cells ([2]; Unstim): ↓ | frequency of IL-10^+ Th2^+CCR5^+α4β7^+ cells ([2]; Unstim): ↓ | frequency of TNF-α^+ Th2^+CCR5^+α4β7^+ cells ([2]; Unstim): ↓ | frequency of IFN-γ^+ Th1^+ cells [2, 6]: ↓ | frequency of IFN-γ^+ Th1^+CCR5^+α4β7^+ cells [2, 6]: ↓ | frequency of IFN-γ^+ Th1^+CCR5^−α4β7^− cells [2, 6]: ↓ | frequency of IFN-γ^+ Th2^+ cells [2, 6]: ↓ | frequency of IFN-γ^+ Th2^+CCR5^+α4β7^+ cells [2, 6]: ↓ | frequency of IFN-γ^+ Th2^+CCR5^−α4β7^− cells [2, 6]: ↓ | frequency of IL-10^+ Th1^+ cells [2, 6]: ↓ | frequency of IL-10^+ Th1^+CCR5^+α4β7^+ cells [2, 6]: ↓ | frequency of IL-10^+ Th1^+CCR5^−α4β7^− cells [2, 6]: ↓ | frequency of IL-10^+ Th2^+ cells [2, 6]: ↓ | frequency of IL-10^+ Th2^+CCR5^+α4β7^+ cells [2, 6]: ↓ | frequency of IL-10^+ Th2^+CCR5^−α4β7^− cells [2, 6]: ↓ | frequency of TNF-α^+ Th1^+CCR5^−α4β7^− cells [2, 6]: ↓ | frequency of TNF-α^+ Th2^+ cells [2, 6]: ↓ | frequency of TNF-α^+ Th2^+CCR5^+α4β7^+ cells [2, 6]: ↓ | frequency of IFN-γ^+ Th1^+CCR5^+α4β7^+ cells ([2]; gp120 pooled peptide): ↓ | frequency of IFN-γ^+ Th1^+CCR5^−α4β7^− cells ([2]; gp120 pooled peptide): ↓ | frequency of IFN-γ^+ Th2^+ cells ([2]; gp120 pooled peptide): ↓ | frequency of IFN-γ^+ Th2^+CCR5^+α4β7^+ cells ([2]; gp120 pooled peptide): ↓ | frequency of IL-10^+ Th1^+CCR5^+α4β7^+ cells ([2]; gp120 pooled peptide): ↓ | frequency of IL-10^+ Th1^+CCR5^−α4β7^− cells ([2]; gp120 pooled peptide): ↓ | frequency of IL-10^+ Th2^+CCR5^+α4β7^+ cells ([2]; gp120 pooled peptide): ↓ | frequency of IL-10^+ Th2^+CCR5^−α4β7^− cells ([2]; gp120 pooled peptide): ↓ | frequency of TNF-α^+ Th1^+ cells ([2]; gp120 pooled peptide): ↓ | frequency of TNF-α^+ Th1^+CCR5^+α4β7^+ cells ([2]; gp120 pooled peptide): ↓ | frequency of TNF-α^+ Th2^+CCR5^+α4β7^+ cells ([2]; gp120 pooled peptide): ↓ | percentage of CCR5^+α4β7^+ Th1 and Th2 cells ([2]; week 17, gp120 pooled peptides ± SAMT-247, TPEN): decreased percentage | number of Th1 CCR5^−α4β7^− cells ([2]; week 17, gp120 pooled peptides ± SAMT-247, Zn chelation): decreased | zinc intensity of PMA+SAMT-247 stimulated cells vs not treated with chelator [3]: significantly lower | frequency of CD14^+ cells [4, 7]: ↓ | frequency of IL-10^+ CD14^+ cells [4, 7]: ↓ | frequency of CD14^+ cells [4, 8]: ↓ | frequency of IL-10^+ CD14^+ cells [4, 8]: ↓ | frequency of CD14^+ cells [4, 9]: ↓ | frequency of IL-10^+ CD14^+ cells [4, 9]: ↓ | IL-10 production by CD14^+ cells [4, 10]: decreased | frequency of CD14^+ cells [4, 10]: decreased | IFN-γ and TNF-α expression in NKG2A^+ cells ([5]; gp120 peptide and gp120 peptide/SAMT-247 treated cells, TPEN): significantly decreased | SAMT-247's ability to increase granzyme B and perforin in NKG2A^+ cells ([5]; gp120 peptide stimulation, presence of TPEN): No significant changes | frequency of IFN-γ^+ NKG2A^+ cells [5, 6]: ↓ | frequency of TNF-α^+ NKG2A^+ cells [5, 6]: ↓ | frequency of IFN-γ^+ NKG2A^+ cells ([5]; gp120 pooled peptide): ↓ | frequency of TNF-α^+ NKG2A^+ cells ([5]; gp120 pooled peptide): ↓
